The source of these data is US20080044805A1, “Biopolymer-Dye Complex and Use as a Bioassay” (STC.UNM, priority 2006, published 2008).

The nature of data set [1]: Water solubility of the cyanine dye. In kind it is physicochemical. The text has this: For fluorescence of the polymers in solution, J-aggregate fluorescence became prominent for polymers having at least 33 cationic polymer repeat units. The fluorescence of the polymer is subject to very strong “super-quenching” by oppositely charged electron acceptors and energy-transfer quenchers that equals or exceeds that observed for conjugated polyelectrolytes by the same kind of quenchers. […] In exemplary embodiments, a cyanine dye of formula I, below, is used.

The nature of data set [2]: Hyaluronidase activity, scaffold destruction fluorescent assay. In kind it is biochemical. To be noted: hyaluronic acid substrate; estimated from maximal fluorescence of unreacted mix. The protocol:
Hyaluronidase enzyme (11.3 U of E.C. 3.2.1.35) was mixed with 8 μg of hyaluronic acid in a total volume of 500 μL at 25° C. After 0, 20, 40, 60, 80, 100, 120 and 140 minutes, a portion of the reaction mixture was diluted into 20 μM concentrations of cyanine dye of Formula I dissolved in 20% methanol-80% water mixture dispensed into the wells of a 96 well microplate (Optiplate™-96, Perkin Elmer Life Sciences, Boston, Mass.) to a total volume of 275 μL. Sixty minutes after adding the reaction mixture to the cyanine solution, the fluorescence was measured using a Mithras LB 940 microplate spectrofluorometer (Berthold Instruments, Oak Ridge, Tenn.). The enzymatic reaction volume that was added to the cyanine dye solution represented approximately 364 ng of intact hyaluronic acid that might be present in the complete absence of enzymatic hydrolysis. This amount of hyaluronic was equivalent to the mid-point in the rise of the hyaluronic titration curve in FIG. 23. […] Hyaluronic acid in amounts of 0, 200, 400, 600, 800 and 1000 ng respectively were mixed with 1 U of hyaluronidase in a total volume of 100 μL. […] Based upon maximal fluorescence from reactions in which the enzyme and substrate were mixed but not allowed to react, it was estimated that hyaluronidase activity level reached a plateau between 60 to 80 minutes, representing 50% hydrolysis of the substrate.

Regarding `CCN1C(=Cc2sc3ccc(Cl)cc3[n+]2CC)Sc2ccc(Cl)cc21.[I-]` [cyanine dye of Formula I], the water solubility result in data set [1] is given as “moderate”.

For hyaluronidase, in data set [2], the “hydrolysis of the substrate at plateau” value is on record as 50%.
